Reference: the supplement of paper PMC8882468

Assays:
Test in all cases: CTG-3D luminescence at 96 h relative to day-0 seeding control (ratio to day 0); higher = more growth / less cytotoxicity; PDxO 3D drug screen, 96 h, CTG-3D normalised to day-0 seeding control.
[1] = system: HCI-001 (organoid from a triple-negative breast cancer xenograft)
[2] = system: HCI-005.E2 (organoid from a breast cancer xenograft with a HER2-positive history)
[3] = system: HCI-011.E2 (organoid from an ER-positive breast cancer xenograft)
[4] = system: HCI-019 (organoid from a triple-negative breast cancer xenograft)
[5] = system: HCI-024 (organoid from a breast cancer xenograft)

CCc1c2c(nc3ccc(O)cc13)-c1cc3c(c(=O)n1C2)COC(=O)[C@]3(O)CC [SN-38]
CTG-3D luminescence at 96 h
Details	12.5 pM	0.00025 µM	0.005 µM	0.1 µM	1 µM	10 µM	100 µM	625 fM
[1], days in culture: 240	1.51	0.771	0.767	0.396	0.155	0.0446	0.0627	1.46
[1], days in culture: 260	2.58	1	1.24	0.603	0.195	0.0569	0.027	1.29
[1], days in culture: 269	1.53	1.63	1.32	0.477	0.161	0.0511	0.0406	1.73
[1], days in culture: 327	1.72	1.61	1.83	0.602	0.127	0.0312	0.0351	2.1
[1], days in culture: 346	1.26	1.2	0.977	0.483	0.105	0.0311	0.0287	1.11
[1], days in culture: 364	1.37	0.978	1.19	0.283	0.0835	0.0303	0.0177	1.76
[3], days in culture: 74	2.34	1.84	2.09	1.85	1.06	0.399	0.23	2.21
[4], days in culture: 110	1.82	1.78	0.471	0.295	0.238	0.127	0.0625	2.53
[4], days in culture: 131	3.04	2.79	0.948	0.312	0.308	0.107	0.169	3.56
[4], days in culture: 152	3.21	3.38	1.51	0.48	0.521	0.106	0.0856	2.26
[5], days in culture: 105	1.67	1.42	1.1	0.734	0.264	0.153	0.114	1.9
[5], days in culture: 122	2.16	2.39	1.58	0.768	0.272	0.192	0.13	2.86
[5], days in culture: 163	1.84	1.76	1.18	0.824	0.262	0.185	0.173	2.01

CTG-3D luminescence at 96 h
Details	12.5 pM	0.00025 µM	0.005 µM	0.1 µM	1 µM	10 µM	100 µM	625 fM
[2]	1.65	1.65	1.41	1.38	1.17	0.21	0.199	1.65
[3]	1.25	1.54	1.4	1.48	0.834	0.362	0.218	1.46

COc1cc2c(Oc3ccc4[nH]c(C)cc4c3F)ncnc2cc1OCCCN1CCCC1 [cediranib]
CTG-3D luminescence at 96 h
Details	12.5 pM	0.00025 µM	0.005 µM	0.1 µM	1 µM	10 µM	100 µM	625 fM
[1], days in culture: 240	1.68	1.12	1.16	0.837	1.93	0.491	0.00478	1.37
[1], days in culture: 260	1.84	0.917	1.79	1.4	1.81	0.0612	0.00103	1.3
[1], days in culture: 269	1.74	2.02	1.64	2.09	2.09	0.00899	-0.0128	1.63
[1], days in culture: 327	1.52	1.34	1.78	1.71	1.48	0.433	0.00365	1.84
[1], days in culture: 346	1.6	1.18	1.25	1.32	1.41	0.639	0.00677	1.33
[1], days in culture: 364	1.33	1.06	1.55	1.18	1.23	0.264	0.00077	1.44
[3], days in culture: 74	2.32	2.91	2.13	2.41	2.47	2.28	0.0101	2.38
[4], days in culture: 110	1.88	1.82	1.98	2.39	1.07	0.1	-0.00352	2.01
[4], days in culture: 131	2.89	3.08	3.29	3.43	1.59	0.0352	-0.00454	3.39
[4], days in culture: 152	2.41	3.23	2.62	1.68	0.851	0.22	0.000827	2.04
[5], days in culture: 105	1.09	1.54	1.4	1.6	1.26	0.0298	-0.000777	1.39
[5], days in culture: 122	1.5	1.9	1.93	1.84	1.65	0.0558	-0.000119	2.28
[5], days in culture: 163	2.12	2.16	1.81	2.23	1.92	0.416	0.00136	2.19

CTG-3D luminescence at 96 h
Details	12.5 pM	0.00025 µM	0.005 µM	0.1 µM	1 µM	10 µM	100 µM	625 fM
[2]	1.5	1.54	1.77	1.68	1.11	0.322	0.0129	1.54
[3]	1.53	1.52	1.45	2.05	1.65	1.44	0.0243	1.97
